The text below walks through data of publication PMC8041777, “Protein kinase A controls the hexosamine pathway by tuning the feedback inhibition of GFAT-1” (Nature Communications, 2021).

The experiment addresses T1, GFAT-1 (human GFAT-1 isoform 2, hGFAT1) (Homo sapiens, UniProt Q06210).
T1 construct: gene GFPT1; full length, internal His6-tag between Gly299 and Asp300 (kept), expressed in Sf21 insect cells (MultiBac), Ni-NTA and SEC purified
Put plainly: GDH-coupled amidohydrolysis assay (APADH at […] nm). As to conditions: 10 mM L-Gln, 6 mM Frc6P, 1 mM APAD, 50 mM KCl, 100 mM potassium phosphate pH 7.5, 37 °C; allosteric feedback inhibitor, isomerase domain site. The experiment is classed as biochemical.

T1 sequence (Q06210 2-681 isoform Q06210-2): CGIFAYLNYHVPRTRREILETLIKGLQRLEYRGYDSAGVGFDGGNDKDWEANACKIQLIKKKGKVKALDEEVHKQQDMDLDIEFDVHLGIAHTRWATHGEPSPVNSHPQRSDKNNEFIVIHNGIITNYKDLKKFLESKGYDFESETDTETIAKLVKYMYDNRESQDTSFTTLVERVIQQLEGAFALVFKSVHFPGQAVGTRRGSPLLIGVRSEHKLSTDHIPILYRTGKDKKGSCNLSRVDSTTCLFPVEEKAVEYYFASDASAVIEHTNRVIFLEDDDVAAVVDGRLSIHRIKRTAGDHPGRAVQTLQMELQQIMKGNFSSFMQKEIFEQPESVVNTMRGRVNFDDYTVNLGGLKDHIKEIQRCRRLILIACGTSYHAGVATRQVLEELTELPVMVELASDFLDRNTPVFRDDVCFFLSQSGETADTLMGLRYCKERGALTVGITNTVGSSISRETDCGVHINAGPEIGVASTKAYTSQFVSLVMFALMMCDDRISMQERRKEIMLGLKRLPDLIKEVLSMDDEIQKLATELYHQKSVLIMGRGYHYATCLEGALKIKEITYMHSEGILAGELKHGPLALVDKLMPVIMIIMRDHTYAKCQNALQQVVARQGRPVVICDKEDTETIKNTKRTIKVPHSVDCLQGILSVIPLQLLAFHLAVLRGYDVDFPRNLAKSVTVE

In the case of `CC(=O)N[C@H]1[C@@H](OP(=O)(O)OP(=O)(O)OC[C@H]2O[C@@H](n3ccc(=O)[nH]c3=O)[C@H](O)[C@@H]2O)O[C@H](CO)[C@@H](O)[C@@H]1O` [UDP-GlcNAc], the IC50 is 41.4 −3.5/+3.9 µM.
